The target of this assay is human lysosomal HexA/HexB. The format is biochemical. The following applies: read-out: Hex A/B, Ki.

On to `CC(=O)N[C@H]1/C(=N/OC(=O)Nc2ccccc2)O[C@H](CO)[C@@H](O)[C@@H]1O` [PUGNAc, O-(2-acetamido-2-deoxy-D-glucopyranosylidene)amino N-phenylcarbamate], for which the Ki came out at 0.025 ± 0.0025 µM.

For the origin of these results see PMC2691177 (Biochemical Journal, 2009).
